According to PubChem BioAssay (NCI):
Several values for one entry are separate records, joined by “and”; a condition that tells them apart may be missing. Equal entries are not always repeated.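 Five concentrations, 48 hours, 96-well plates. The concentration for 50% growth inhibition is given as GI50. The concentration for full growth arrest is given as TGI.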

Columns and labels:
Test in all cases: growth of human tumour cells (NCI), 48 h
[1] = test system: SK-OV-3 ovarian
[2] = test system: COLO 205 colon
[3] = test system: TK-10 renal
[4] = test system: BT-549 breast
[5] = test system: NCI-H226 lung
[6] = test system: SF-295 CNS
[7] = test system: MCF7 breast
[8] = test system: IGROV1 ovarian
[9] = test system: ACHN renal
[10] = test system: A498 renal

| Structure (SMILES) | TGI [1] | TGI [2] | TGI [3] | TGI [4] [µM] | TGI [5] | TGI [6] [µM] | TGI [7] [µM] | TGI [8] | TGI [9] | TGI [10] | GI50 [1] | GI50 [3] | GI50 [8] |
| --- | --- | --- | --- | --- | --- | --- | --- | --- | --- | --- | --- | --- | --- |
| Cc1c(C)c2c(c(N)c1C#N)C(=O)N(NC(=S)Nc1ccccc1)C2=O | > 100 µM | > 100 µM | > 100 µM | > 100 | > 100 µM | > 100 | > 100 | > 100 µM | > 100 µM | – | – | – | – |
| c1csc(-c2cc(-c3ccsc3)cs2)c1 | > 100 µM | > 100 µM | > 100 µM | > 100 | – | > 100 | > 100 | > 100 µM | > 100 µM | > 100 µM | – | – | – |
| CC1(O)CC2C(CC1SCc1ccccc1)C2(C)C (configuration not stated) | > 100 µM and 29.2 µM | 35.6 µM and 30.6 µM | > 100 µM and 34.1 µM | – | 42.5 µM and 30.1 µM | 43.4 | – | > 100 µM and 28.9 µM | 34.5 µM and 30.4 µM | 57.9 µM and 32.5 µM | 37.5 µM and 15.7 µM | 57.1 µM and 19.9 µM | 38.8 µM and 15.4 µM |
| Nc1ccc2c3c1cccc3c(=O)n1c3ccc(Cc4ccc5c(c4)nc4c6ccc(N)c7cccc(c(=O)n54)c76)cc3nc21 | > 100 µM | > 100 µM | – | > 100 | > 100 µM | > 100 | > 100 | > 100 µM | > 100 µM | > 100 µM | – | – | – |
| N#CC(C#N)=C/C=C/c1ccccc1[N+](=O)[O-] | > 10 µM | > 10 µM | > 10 µM | – | > 10 µM | > 10 | > 10 | > 10 µM | > 10 µM | > 10 µM | – | – | – |
| O=C(CN1CCCC1)Nc1ccc2c(c1)C1Oc3ccccc3CC1CO2 (configuration not stated) | > 100 µM | 27.8 µM | > 100 µM | 75.4 | > 100 µM | 39.7 | 32.4 | > 100 µM | – | > 100 µM | – | – | – |
| CN1CCN(Cc2ccc(C(=S)Nc3ccccc3)s2)CC1 | > 100 µM | 45.9 µM | – | 76.3 | – | > 100 | > 100 | 75.8 µM | > 100 µM | > 100 µM | – | – | – |
| CC1(c2ccc(Cl)cc2)c2ccccc2C(=O)N1CCCN1C(=O)c2ccccc2C1=O (configuration not stated) | > 100 µM | 36.2 µM | > 100 µM | > 100 | 63.4 µM | 67 | – | 70.4 µM | > 100 µM | > 100 µM | – | – | – |
| Cc1cc(C)n(C(C)(C(=O)Cc2ccccc2)n2nc(C)cc2C)n1 | > 100 µM | > 100 µM | > 100 µM | – | > 100 µM | > 100 | > 100 | > 100 µM | > 100 µM | > 100 µM | – | – | – |
| CC(C)(C)C(=O)C(N)C(=O)C(C)(C)C | > 100 µM | > 100 µM | > 100 µM | > 100 | – | > 100 | > 100 | – | > 100 µM | – | – | – | – |
| Cc1cc(C)c(C2=NO[C@@H]3[C@H]2C(=O)C=C2N(Cc4ccccc4)CCO[C@@]23O)c(C)c1 | > 100 µM | > 100 µM | – | – | > 100 µM | > 100 | > 100 | > 100 µM | – | > 100 µM | – | – | – |
| COc1cc2c(cc1OC)C(C1CC1)ON(C)CC2 (configuration not stated) | – | > 100 µM | > 100 µM | > 100 | > 100 µM | > 100 | > 100 | > 100 µM | > 100 µM | > 100 µM | – | – | – |
| CN(Cc1ccccc1)C(=S)S | > 100 µM | > 100 µM | – | > 100 | > 100 µM | > 100 | > 100 | > 100 µM | > 100 µM | > 100 µM | – | – | – |
| CCOC(=O)C(NC(=O)c1ccccc1)(Nc1ccc(S(=O)(=O)Nc2cc(C)on2)cc1)C(F)(F)F (configuration not stated) | > 100 µM | > 100 µM | > 100 µM | > 100 | > 100 µM | > 100 | > 100 | > 100 µM | > 100 µM | – | – | – | – |
| Cc1cc(S(=O)(=O)NC2=NCc3c(F)cccc3N2)c(S)cc1Cl | – | > 100 µM | > 100 µM | > 100 | > 100 µM | > 100 | > 100 | > 100 µM | > 100 µM | > 100 µM | – | – | – |
| COc1cc(-c2cc(OC)c(OC)c3ccc(Br)cc23)c2cc(Br)ccc2c1OC | 71.8 µM | > 100 µM | 52.7 µM | – | 58.1 µM | 43.8 | 85.7 | 85.3 µM | 51.4 µM | 44.9 µM | – | – | – |
| CN(C)CCCNC(=O)N/N=C/c1ccccn1 | > 10 µM | > 10 µM | > 10 µM | – | – | > 10 | > 10 | > 10 µM | > 10 µM | > 10 µM | – | – | – |
| CCn1c(-c2cc3ccccc3cc2OC(C)=O)n[nH]c1=S | > 100 µM | – | 75.6 µM | – | > 100 µM | > 100 | > 100 | > 100 µM | > 100 µM | 84.8 µM | – | – | – |
